{
  "source": "patent US8101666B2",
  "about": "“Methods and compounds for detection of medical disorders” (Aposense Ltd., priority 2004, dated 2012)",
  "key": {"[1]": {"tested_on": "cells undergoing apoptosis, induced by cerebral ischemia due to middle cerebral artery (MCA) occlusion", "test": "Selective targeting of NST739 to cells undergoing cell death following MCA occlusion, fluorescent microscopy of brain sections", "assay_type": "in vivo", "settings": "Balb/C mice", "method": "An in vivo experiment was conducted in mice, in order to show the performance of NST739 in selective binding to cells undergoing apoptosis, induced by cerebral ischemia due to middle cerebral artery (MCA) occlusion.\nStudies were carried out in adult male Balb/C mice, weighing 20-25 g. Cerebral ischemia was induced by unilateral cauterization of the middle cerebral artery. Briefly, mice were anesthetized, and ischemia was induced through a subtemporal approach. The craniotomy was performed at the level where the MCA crossed the lateral olfactory tract. […] All visible branches also where occluded to prevent blood supply by passing. The incision sites were clipped closed and the animal was injected with analgesics and allowed to recover. Twenty-two hours after the middle cerebral artery (MCA) cauterization, NST739 or the control compound BDA (1.4 mg/animal each) were injected i.v. At 24 h from the induction of the injury, and two hours after administration of NST739, mice were anesthetized, sacrificed, and brains were removed into liquid nitrogen for further analysis. […] Frozen sections were prepared. The slices were visualized by fluorescent microscopy."}, "[2]": {"tested_on": "apoptotic cells in tumor, murine melanoma-derived B16-F10 cells", "test": "Targeting of DC in vivo to apoptotic cells in B16-F10 murine melanoma tumor, fluorescent microscopy", "design": "species or system mice", "settings": "2 mg/mouse i.v., 2 h; for uptake by the apoptotic or the viable tumor cells: data not shown", "method": "Tumors, and especially aggressive malignancies such as melanoma are characterized, in addition to the abnormal tissue proliferation, also by marked apoptosis of tumor cells. The performance of DC in selective targeting of these apoptotic cells within the tumor was therefore examined. Mice (c57/black; 8 weeks old male mice) were injected subcutaneously bilaterally, in the flank, with murine melanoma-derived B16-F10 cells (ATCC CRL-6475; 10^5 cells/mice in a volume of 100 μl). Prior to injection, the cell line was maintained in culture in Dulbecco's modified Eagle's medium (DMEM), supplemented with 4 mM of L-glutamine; 100 units/ml of penicillin; 100 μg/ml of streptomycin; 12.5 units/ml of nystatin and 10% of fetal calf serum (FCS). Tumors were allowed to grow for 14 days, by which they reached a diameter of 5-7 mm.\nDansyl-cysteine (DC), or the control compounds dansyl-glycine or dansyl-serine (2 mg/mouse each in NaPpi buffer, pH. 7.40) was injected intravenously. Two hours later, mice were scarified and the tumors, as well as other organs were taken, and immediately frozen in liquid nitrogen. Frozen sections were then prepared from each of the organs. Uptake of the examined compounds by the tumors or other organs was assessed by fluorescent microscopy."}, "[3]": {"tested_on": "degenerating neuronal cells", "test": "Selective binding of NST729 in vivo to degenerating neuronal cells in a mouse model of motor neuron disease (SOD G93A)", "settings": "SOD G93A transgenic mice, 1.4 mg/animal i.v., 2 h", "method": "Studies were carried out in transgenic mice for SOD with point mutation of G93A. NST729 (1.4 mg / animal in 200 μl 50% Cremophor/ trizma-base 0.1M was injected i.v. After two hours, mice were anesthetized and brain +spinal cord were removed into liquid nitrogen for further analysis. Frozen sections of 10 μm thickness were prepared. The slices were visualized by fluorescent microscopy."}, "[4]": {"tested_on": "amyloid plaques", "test": "Detection of amyloid plaques in APP Swedish TG2576 mice, fluorescent microscopy of brain sections", "assay_type": "in vivo", "settings": "i.v., 2 h", "method": "Studies were carried out in one and a half year old APP Swedish TG2576 mice, which have a mutation of APP. BDA (which lacks a free thiol residue) and NST729 were injected i.v., two hours later, mice were anesthetized and brains were removed into liquid nitrogen for further analysis. Frozen section of 10 μm thickness each were prepared, and visualized by fluorescent microscopy."}, "[5]": {"tested_on": "brain cells undergoing apoptosis following middle cerebral artery (MCA) cauterization", "test": "Selective binding of NST729 to cells undergoing cell death following MCA occlusion, fluorescent microscopy of brain sections", "assay_type": "in vivo", "settings": "Balb/C mice", "method": "Studies were carried out in adult male Balb/C mice, weighing 20-25 g. Ischemia was induced by unilateral cauterization of the middle cerebral artery. Briefly, mice were anesthetized, and ischemia was induced through a subtemporal approach. The craniotomy was performed at the level where the MCA crossed the lateral olfactory tract. […] All visible branches also were occluded to prevent blood supply by passing. The incision sites were clipped closed and the animal was injected with analgesics and allowed to recover."}},
  "data": [
    {"smiles": "CN(C)c1cccc2c(S(=O)(=O)N(CCS)CCCF)cccc12", "note": "[NST739, N-(3-fluoropropyl)-N-(2-thioethyl)-dansylamide]", "values": [
      {"measurement": "binding to cells in the damaged area", "setting": "[1]; 1.4 mg/animal i.v. 22 h after MCA cauterization, brains removed 2 h later", "result": "extensive binding"},
      {"measurement": "staining of cells in other brain regions", "setting": "[1]; MCA cauterization, 1.4 mg/animal i.v., 2 h", "result": "remained unstained"},
      {"measurement": "level of binding (fluorescence) compared with BDA", "setting": "[1]; MCA cauterization, 1.4 mg/animal i.v., 2 h, versus control BDA lacking the thiol group", "result": "significantly higher"}
    ]},
    {"smiles": "CN(C)c1cccc2c(S(=O)(=O)N[C@@H](CS)C(=O)O)cccc12", "note": "[DC, dansyl-cysteine]", "values": [
      {"measurement": "binding to tumor cells undergoing cell death", "setting": "[2]; c57/black mice, B16-F10 tumors", "result": "Extensive binding"},
      {"measurement": "staining of viable tumor cells", "setting": "[2]; c57/black mice, B16-F10 tumors", "result": "remain unstained"},
      {"measurement": "binding to normal, viable small intestine tissue", "setting": "[2]; same animal", "result": "lack of binding"}
    ]},
    {"smiles": "CN(C)c1cccc2c(S(=O)(=O)N[C@@H](CO)C(=O)O)cccc12", "note": "[dansyl-serine, reference compound]", "values": [
      {"measurement": "uptake by the apoptotic or the viable tumor cells", "setting": "[2]; B16-F10 tumors", "result": "did not manifest a significant uptake"}
    ]},
    {"smiles": "CN(C)c1cccc2c(S(=O)(=O)NCC(=O)O)cccc12", "note": "[dansyl-glycine, reference compound]", "values": [
      {"measurement": "uptake by the apoptotic or the viable tumor cells", "setting": "[2]; B16-F10 tumors", "result": "did not manifest a significant uptake"}
    ]},
    {"smiles": "CN(C)c1cccc2c(S(=O)(=O)NCCS)cccc12", "note": "[NST729, n-(2-mercaptoethyl)-dansylamide]", "values": [
      {"measurement": "uptake by degenerating neuronal cells and axons (motor nuclei of the pons)", "setting": "[3]", "result": "marked uptake"},
      {"measurement": "uptake by other cells in the same region and cells in other brain regions", "setting": "[3]", "result": "did not manifest such uptake"},
      {"measurement": "staining of surrounding brain cells", "setting": "[4]; APP Swedish TG2576 mice", "result": "remained unstained"},
      {"measurement": "intensity of binding to the plaques compared with BDA (fluorescence intensity)", "setting": "[4]; APP Swedish TG2576 mice, versus control BDA", "result": "markedly higher"},
      {"measurement": "visualization of amyloid plaques", "setting": "[4]; one and a half year old APP Swedish TG2576 mice", "result": "strongly visualized"},
      {"measurement": "binding to cells in the damaged area", "setting": "[5]; 1.4 mg i.v. 22 h after MCA cauterization, brains removed 2 h later", "result": "extensive binding"},
      {"measurement": "number of apoptotic events detected compared with BDA", "setting": "[5]; MCA cauterization, i.v., 2 h, versus control BDA", "result": "significantly higher"},
      {"measurement": "level of binding (fluorescence intensity) compared with BDA", "setting": "[5]; MCA cauterization, i.v., 2 h, versus control BDA lacking the thiol group", "result": "markedly higher"}
    ]}
  ]
}
